Several values for one entry are separate records, joined by “and”; a condition that tells them apart may be missing. Identical values can stand only once.
The compounds below were run on P. falciparum HB3 in RBCs, SYBR Green DNA fluorescence (assay: growth inhibition of P. falciparum HB3, dose response, HB3 strain, red blood cells, SYBR Green, cherry-picked (AID 652041);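 note: parasites exposed to compound for 72 hours before the DNA read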).

Question: Which AC35 does the source give for CCCCNc1c(-c2ccc(-c3ccc(OC)cc3)c(OC)c2)nc2ccccn12 here?
Answer: 4.29 µM

Question: How did the AC35 turn out when CN(C)c1nc(SCc2ccc(Cl)cc2)nc2c1CCCC2 was run?
Answer: 33.5 µM

Question: O=C(Nc1ccc(Cl)cc1C(=O)Nc1ccc(Br)cn1)c1ccco1 was tested. Which AC35 did it give?
Answer: 16.5 µM

Question: O=C(Nc1cc(Oc2ccc(Cl)cc2)cc([N+](=O)[O-])c1)c1ccco1 was tested. Which AC35 did it give?
Answer: 2.14 µM

Question: For O=C1c2cccc(Cl)c2C(=O)c2c1cccc2N1CCCC1, which AC35 is on record?
Answer: 20.9 µM

Question: Which AC35 does the source give for Cc1cccc(N2CCN(C(=O)C3COc4ccccc4O3)CC2)c1C (centres undefined) here?
Answer: 38.9 µM

Question: How did the AC35 turn out when COc1ccc(C(=O)On2c(-c3ccc(Br)cc3)nc3ccccc3c2=O)cc1 was run?
Answer: 9.45 µM

Question: How did the AC35 turn out when Cn1ccc(=Nc2ccc(NC(=O)c3ccc(N=c4ccn(C)c5ccc([N+](=O)[O-])cc45)cc3)cc2)cc1 was run?
Answer: < 0.0235 µM

Question: Which AC35 does the source give for CC1(C(=O)OCC(=O)Nc2ccc3ccccc3c2)CC1(Cl)Cl (centres undefined) here?
Answer: 31.2 µM

Question: CCCCC(=O)NC(c1ccco1)c1cc(Cl)c2cccnc2c1O (centres undefined) was tested. Which AC35 did it give?
Answer: 1.62 µM

Question: Cc1ccc(-c2c3c(nc4sc(C(N)=O)c(N)c24)CCCC3)o1 was tested. Which AC35 did it give?
Answer: 37.6 µM

Question: For COC(=O)C1=NN(C(=O)c2cccc(Br)c2)C(O)(c2ccc(Cl)cc2)C1 (centres undefined), which AC35 is on record?
Answer: 31 µM

Question: Which AC35 does the source give for O=S1OC(c2ccccc2)c2cc(Cl)ccc21 (centres undefined) here?
Answer: 16.8 µM

Question: Which AC35 does the source give for CCC1=NN(C(=O)c2cccc(Br)c2)C(O)(c2ccc(Br)cc2)C1 (centres undefined) here?
Answer: 12.3 µM

Question: Which AC35 does the source give for CCC(C)Sc1cccc(-c2nc3ccccn3c2NCc2ccccc2)c1 (centres undefined) here?
Answer: 12.1 µM

Question: For O=C(O)c1ccccc1NC(c1ccccc1)c1ccc2cccnc2c1O (centres undefined), which AC35 is on record?
Answer: 6.46 µM

Question: With O=C(CN1CC[n+]2c(-c3cccs3)csc21)c1ccc(-c2ccccc2)cc1 as the compound, how does the AC35 read?
Answer: 1.46 µM

Question: Clc1ccc(COC(Cn2ccnc2)c2ccc(Cl)cc2Cl)c(Cl)c1 (centres undefined) was tested. Which AC35 did it give?
Answer: 1.57 µM and 1.95 µM

Question: O=C1c2ccccc2-n2c1nc1ccccc1c2=O was tested. Which AC35 did it give?
Answer: 0.0617 µM

Question: CCCn1nc(C(=O)N2CCN(S(=O)(=O)c3ccc(C)c(C)c3)CC2)c2ccccc2c1=O was tested. Which AC35 did it give?
Answer: 8.13 µM

Question: With Cc1ccc(Sc2ccc(NC(=O)CCl)cc2)cc1C as the compound, how does the AC35 read?
Answer: 0.321 µM

Question: Which AC35 does the source give for CCCCCCCc1ccc(-c2ccc(O)cc2)nc1 here?
Answer: 4.88 µM

Question: Which AC35 does the source give for CC(C)N1CCN(c2ccc(OC[C@H]3CO[C@](Cn4cncn4)(c4ccc(Cl)cc4Cl)O3)cc2)CC1 here?
Answer: 7.37 µM

Question: With Cc1ccc(Sc2cc(C)nc(-c3ccccn3)n2)cc1 as the compound, how does the AC35 read?
Answer: 6.03 µM

Question: For CCC(NC(=S)NCc1ccc(F)cc1)c1ccc(C(C)C)cc1 (centres undefined), which AC35 is on record?
Answer: 11.3 µM

Question: CCCCNc1c(-c2cccc(-c3ccc(OC)cc3)c2)nc2ccc(C)cn12 was tested. Which AC35 did it give?
Answer: 1.65 µM

Question: With Cc1c(Cc2ccccc2)c(NCCN(C)C)n2c(nc3ccccc32)c1C#N as the compound, how does the AC35 read?
Answer: 6.66 µM

Question: For Cc1cc(Nc2ccccc2)nn1C(=O)c1ccccc1, which AC35 is on record?
Answer: 43.1 µM

Question: For Cc1cc(/C=C2\SC(=S)N(C)C2=O)c(C)n1-c1ccc(O)cc1, which AC35 is on record?
Answer: 9.39 µM

Question: CCCCC(=O)NC(=S)NNC(=O)CCc1ccccc1 was tested. Which AC35 did it give?
Answer: 23 µM

Question: COc1ccc(O)c(C(=O)CC(=O)c2ccc(F)cc2)c1 was tested. Which AC35 did it give?
Answer: 16.1 µM

Question: For CC(=O)C1=C(c2cccc([N+](=O)[O-])c2)N(C(C)=O)n2c(C)nnc2S1, which AC35 is on record?
Answer: 0.59 µM

Question: Which AC35 does the source give for Clc1ccc(C(Cn2ccnc2)OCc2c(Cl)cccc2Cl)c(Cl)c1 (centres undefined) here?
Answer: 2.36 µM

Question: How did the AC35 turn out when CCOC(=O)N1C(=O)C2(CCCCC2)N(c2ccccc2Cl)C1=S was run?
Answer: 30.5 µM

Question: For Cc1nc(-c2ccccn2)nc(N(C)c2ccccc2)c1Cl, which AC35 is on record?
Answer: 6.1 µM

Question: With O=c1c2ccccc2nc(-c2cccc(Cl)c2)n1O as the compound, how does the AC35 read?
Answer: 28.2 µM

Question: With O=[N+]([O-])c1ccc2c(OCc3nnc(-c4ccccc4Br)o3)ncnc2c1 as the compound, how does the AC35 read?
Answer: 21.8 µM

Question: For CC(=O)Oc1ccc(OC(C)=O)c(SCCCCCCl)c1, which AC35 is on record?
Answer: 2.56 µM

Question: How did the AC35 turn out when Cc1csc(NC(=O)C(C)Oc2ccc(Cl)cc2C)n1 (centres undefined) was run?
Answer: 23 µM

Question: Which AC35 does the source give for CN(C)c1nc(-c2ccccn2)nnc1-c1ccccc1 here?
Answer: 2.54 µM

Question: For COc1cc([N+](=O)[O-])cc(/C=N/NC(=O)c2cncc(Br)c2)c1O, which AC35 is on record?
Answer: 16.8 µM

Question: Which AC35 does the source give for CCC(=O)NC(c1ccco1)c1cc(Cl)c2cccnc2c1O (centres undefined) here?
Answer: 0.185 µM

Question: How did the AC35 turn out when COc1cccc(CC(=O)Nc2ccc3nc(C)sc3c2)c1 was run?
Answer: 43.9 µM

Question: Which AC35 does the source give for [O-][n+]1cccc2c(Br)cc(Br)c(O)c21 here?
Answer: 2.77 µM

Question: How did the AC35 turn out when CC(=O)NC(c1ccc(C)cc1)c1cc([N+](=O)[O-])c2cccnc2c1O (centres undefined) was run?
Answer: 11.2 µM

Question: With OCCN(CCO)c1cc2c3ccccc3ccc2c2ccccc12 as the compound, how does the AC35 read?
Answer: 1.21 µM

Question: How did the AC35 turn out when CC(C)(C)C(=O)C(Oc1ccc(Cl)cc1)n1cncn1 (centres undefined) was run?
Answer: 36.1 µM

Question: How did the AC35 turn out when Cc1ccc(C)c(/C=C/C(=O)c2ccccc(=O)c2O)c1 was run?
Answer: 8.27 µM

Question: S=C(NCc1ccco1)Nc1ccc(Oc2ccc(Cl)cc2)cc1 was tested. Which AC35 did it give?
Answer: 16.8 µM

Question: Cc1ccc(Nc2cc(C)nn2-c2nc(C)cc(C)n2)cc1 was tested. Which AC35 did it give?
Answer: 2.75 µM

Question: For CCCCCOc1ccc(CSc2n[nH]c(C)n2)cc1, which AC35 is on record?
Answer: 8.7 µM

Question: For FC(F)(F)c1cccc(N2CCc3cn[nH]c32)c1, which AC35 is on record?
Answer: 28.4 µM

Question: With O=c1cc(CSc2ccc(Cl)cc2)nc(-c2ccccn2)[nH]1 as the compound, how does the AC35 read?
Answer: 2.3 µM

Question: With O/N=C/c1cc(Br)ccc1OCc1ccccc1F as the compound, how does the AC35 read?
Answer: 29.2 µM

Question: How did the AC35 turn out when CCCS(=O)(=O)c1c(S(=O)(=O)CCC)c2c(C)cccn2c1C(=O)N/N=C/c1cc(O)cc(O)c1 was run?
Answer: 10.5 µM

Question: CC1(C)C2CCC1(C)C(OC(=O)c1ccc(O)cc1)C2 (centres undefined) was tested. Which AC35 did it give?
Answer: 11.6 µM

Question: Which AC35 does the source give for O=C(N/N=C/c1cc(Cl)cc([N+](=O)[O-])c1O)c1ccccc1NS(=O)(=O)c1cccs1 here?
Answer: 41.5 µM

Question: With Cc1cccc(NC(=S)NC(C)CCc2ccccc2)c1 (centres undefined) as the compound, how does the AC35 read?
Answer: 12.7 µM

Question: How did the AC35 turn out when Cc1nc2ccc(C(C(F)(F)F)(C(F)(F)F)C(F)(F)F)cc2[nH]1 was run?
Answer: 11.2 µM

Question: How did the AC35 turn out when Cc1cc(C)c(C(=O)CC(=O)c2cccnc2)c(C)c1 was run?
Answer: 8.29 µM

Question: Which AC35 does the source give for COC(=O)C1=C(C)NC(C)=C(C(=O)OCC(C)C)C1c1ccccc1[N+](=O)[O-] (centres undefined) here?
Answer: 4.63 µM

Question: For CC1(C)C=Cc2c(ccc3c2OC[C@@H](c2ccc(O)cc2O)C3)O1, which AC35 is on record?
Answer: 13.8 µM

Question: Which AC35 does the source give for COc1cc(/C=N/O)cc(Br)c1OCc1cccc(Cl)c1 here?
Answer: 28.1 µM

Question: O=C(NCCC1=CCCCC1)c1c(O)nc2sccn2c1=O was tested. Which AC35 did it give?
Answer: 16.2 µM

Question: O=C1OCC(CO)(CO)N=C1NNc1ccc(Cl)c(Cl)c1 was tested. Which AC35 did it give?
Answer: 19.7 µM

Question: How did the AC35 turn out when CC/C(=N/NC(=O)c1ccccc1O)c1c(C)[nH]n(-c2ccccc2)c1=O was run?
Answer: 28.1 µM

Question: Which AC35 does the source give for O=C(O)CSc1nc(-c2ccc(Cl)cc2)nc2c1oc1ccccc12 here?
Answer: 28.6 µM

Question: COc1ccccc1C1CCN(C(=O)c2ccc(Cl)cc2)CC1 was tested. Which AC35 did it give?
Answer: 28.6 µM

Question: How did the AC35 turn out when c1ccc(C(=NNc2nc3ccccc3s2)c2ccccn2)cc1 was run?
Answer: 2.22 µM

Question: COc1cnc(-c2ccccn2)nc1N(C)c1ccccc1 was tested. Which AC35 did it give?
Answer: 3.46 µM

Question: O=c1c2ccccc2c(-c2ccc(O)cc2)nn1-c1cccc(C(F)(F)F)c1 was tested. Which AC35 did it give?
Answer: 3.52 µM

Question: For O=C(CSc1ccc(-c2ccccn2)nn1)c1ccccc1, which AC35 is on record?
Answer: 28 µM

Question: Which AC35 does the source give for CCCC(C)Sc1nc2c([nH]1)c(=S)n(C)c(=O)n2C (centres undefined) here?
Answer: 6.67 µM

Question: For CC(C)C(=O)NC(c1cccc([N+](=O)[O-])c1)c1ccc2cccnc2c1O (centres undefined), which AC35 is on record?
Answer: 0.826 µM

Question: With CCc1ccc(S(=O)(=O)N(C(=O)c2ccncc2)c2ccc(OC(=O)c3ccncc3)cc2)cc1 as the compound, how does the AC35 read?
Answer: 41.7 µM

Question: For O=C(Nc1nnc(-c2cccs2)o1)c1cccc(Oc2ccccc2)c1, which AC35 is on record?
Answer: 19.4 µM

Question: How did the AC35 turn out when COc1cc2cnc(-c3ccccc3)c(C(=O)c3ccc(F)cc3)c2cc1OC was run?
Answer: 21.6 µM

Question: How did the AC35 turn out when Nc1nc(-c2ccccc2)c(-c2ccc([N+](=O)[O-])cc2)s1 was run?
Answer: 39.6 µM

Question: Which AC35 does the source give for Oc1ccccc1-c1cc(-c2ccc3c(c2)OCCO3)n[nH]1 here?
Answer: 9.9 µM

Question: How did the AC35 turn out when S=C(Nc1ccc(Oc2ccccc2)cc1)NC1CCCCCC1 was run?
Answer: 4.03 µM

Question: C=C(C)COc1ccc(-c2[nH]ncc2-c2ccccc2)c(O)c1 was tested. Which AC35 did it give?
Answer: 1.89 µM

Question: Which AC35 does the source give for COc1cc(NS(=O)(=O)c2ccc(C)cc2)c2ncccc2c1 here?
Answer: 6.38 µM

Question: C=CCN(CC=C)C(=S)NC(=O)c1ccc(C)c(Br)c1 was tested. Which AC35 did it give?
Answer: 9.72 µM

Question: With CCN1C(=O)C(CC(=O)Nc2ccccc2Cl)N(NC(=O)c2cccc(F)c2)C1=S (centres undefined) as the compound, how does the AC35 read?
Answer: 21.8 µM
